The target of test [1] is T1, PfKRS1 (Plasmodium falciparum, UniProt Q8IDJ8). Nature of the test: Recombinant KRS thermal shift assay, PfKRS1. In kind it is binding. Particulars: 40 µM inhibitor. Further details: recombinant PfKRS1 (77–583 and 80–583); 6xHis (N); made in house; host or cells: E. coli Rosetta BL21(DE3), vector pAVA0421. On the procedure:
2.9 Recombin ant KR S thermal shift assays ( UW)
Recombi nant PfKRS1, CpKRS, and HsKRS were di l u ted to 4 µM in assay buffe r c ontaining 20 mM Tris-HC l pH 8, 200 mM NaC l , 5 mM DTT, 5 mM MgC l2 and l i gands (1 mM lysi ne; 40 µM ATP; and 40 µM inhibitors) in various combinations. Ali quot s (10 µl) were added to a 96-well PCR plate and incubated at ambi ent temperature for 15 mi n. SYPRO® Ora n g e dye (I nv itrog en) was di l uted i n ass ay buffer to a 5x concent rat i on a nd 1 0 µl was added to t he P C R pl at e t o bri ng t he fi nal as s ay v ol ume t o 20 µl. The pl at e w as s eal ed and pul s e cent ri fug ed t o cons ol i dat e t he as s ay mix t ure and remov e ai r bu bbl es .
Us i ng a StepOne Pl us RT-PCR thermal cycler (Ap plied Biosystems) to monitor fluorescence at a n excitation/emission wavelength of 300/470-570 nm, the samples were heated from 25° C to 99° C at a ramp rate of .016° C/sec. Graphpa d® P rism software (GraphPad S oftware, San Diego, CA) was used to determine melting temperatures (Tm) us i ng Bol tzmann s i g moi dal analys is .
Table S3. Thermal shift data for compounds with P fKRS1, Cp KRS a nd Hs KRS.
Com poun d Eff ects o n Lys R S M elti ng Tem pe ratu re ( ∆Tm) […]

The next test addresses T2, HsKRS (Homo sapiens, UniProt Q15046).
T2 construct: HsKRS (full-length) proteins; 6xHis (N); made in house; host or cells: E. coli Rosetta BL21(DE3), vector pAVA0421 (UW); template pET28a-KRS
Nature of the test: HsKRS SAR assay, luciferase ATP consumption (Kinase-Glo). In kind it is biochemical. On the procedure: (§1) We produced recombinant PfKRS1 (77–583 and 80–583), CpKRS (46-end), and HsKRS (full-length) proteins and developed biochemical assays based on the luciferase ATP consumption assay (Kinase-Glo; Promega) ([16]), which was suitable for the high-throughput screening, and the pyrophosphate generation assay (EnzChek) ([17]) format for kinetic characterization of the enzymes. The activities of recombinant enzymes were analyzed by monitoring only the first stage of the aminoacylation reaction. This reaction is suitable for high-throughput screening campaigns and makes the reaction more amenable for steady-state kinetic studies. By using the EnzChek assay, which monitors the production of pyrophosphate (when coupled with pyrophosphatase), Km values were obtained for PfKRS1, CpKRS, and HsKRS for ATP and L-lysine (Table 1 and SI Appendix, Fig. S1 and Table S1). […] This may be due to structural differences (see below) between the active sites of the parasite and human enzymes. […]
(§2) 2.7 PfKR S1, CpKRS and HsKR S S AR Ass ay Usin g L ucife r ase ATP C onsumption ( Kinase Glo ®) Inhi bi ti on of KRS acti vity by cl adospori n and other compou nds was assayed i n t he buffered me di um.
(§3) Each as s ay w el l was compos ed of b uffer (as des cri bed i n Ta bl e S3), 10 µM l ysi ne and ei ther 8.1 nM PfKRS1, 8.1 nM CpKRS or 6.6 nM HsKRS. […] The react i on w a s initiated by the addition of 2 µM ATP. The plate was incubated with shaking at 90 rpm and 30°C for 120 mi n. […] Maximum and minimum signal controls were included in each reaction plate. […] Analysis and calculation of inhibitors IC50 values were performed using Graphpad® Prism software (GraphPad S oftware, San Diego, CA). […]
(In general: Kinase-Glo measures the ATP left after a reaction by luminescence.)

The subject of test [2] is Plasmodium falciparum 3D7. Nature of the test: P. falciparum 3D7 growth inhibition (SYBR green I). Particulars: for EC50: Plasmodium falciparum, P. falciparum 3D7 bloodstream, read-out: Pf(3D7) EC50. The test is classed as cell-based. An excerpt: 3.2 Cytotoxicity Studies (Dundee)
In vi t ro cy totox i ci ty s tudies can be ca rri ed out us i ng Hep G 2 (Human C aucas i an hepatocy te ca rci noma, ECACC cat. no. 850 114 30) us ed as i ndi cators f or g eneral mammal i an cel l tox i ci ty . […]
3.3 In vitro Cell Assay D ata Analysis (Du ndee) […]
as 0%. Qual i ty control c ri teri a for passi ng pl ates were as fol l ow s : Z’ > 0.
< 15 . T he f ormula used to calculate Z’ is 1- 3´ (St D e v _ hi gh + St D e v_ low) . […]
Al l EC50 Curve fitti ng was undertaken usi ng XLFi t versi on 4.2 usi ng Model 205 wi th the foll owi ng 4 paramet ri c equat i on: A + (?-A) ,where A=% i nhi bi ti on at bo ttom, B=% i nhi bi ti on at top, C= EC , […]
D= slope, x= inhibitor concentration a nd y= % inhibition. […]
was fixed to 100 only when at least 50% of inhibition was reached.

Test [3] has as its target T1, PfKRS1. Description: PfKRS1 SAR assay, luciferase ATP consumption (Kinase-Glo). In kind it is biochemical. Further details: recombinant PfKRS1 (77–583 and 80–583); 6xHis (N); made in house; host or cells: E. coli Rosetta BL21(DE3), vector pAVA0421. Conditions: for IC50: Kinase-Glo assay. How it is done: as §1, §2, §3
[4] abbreviates: read-out: ΔTm PfKRS, ATP + Lysine.
Where [5] appears, read: read-out: ΔTm PfKRS, no substrate.

Where two headings read alike, the source gives them in different places. Where only a bound is given, the exact number is not on record here.

T1 sequence (Q8IDJ8 77-583): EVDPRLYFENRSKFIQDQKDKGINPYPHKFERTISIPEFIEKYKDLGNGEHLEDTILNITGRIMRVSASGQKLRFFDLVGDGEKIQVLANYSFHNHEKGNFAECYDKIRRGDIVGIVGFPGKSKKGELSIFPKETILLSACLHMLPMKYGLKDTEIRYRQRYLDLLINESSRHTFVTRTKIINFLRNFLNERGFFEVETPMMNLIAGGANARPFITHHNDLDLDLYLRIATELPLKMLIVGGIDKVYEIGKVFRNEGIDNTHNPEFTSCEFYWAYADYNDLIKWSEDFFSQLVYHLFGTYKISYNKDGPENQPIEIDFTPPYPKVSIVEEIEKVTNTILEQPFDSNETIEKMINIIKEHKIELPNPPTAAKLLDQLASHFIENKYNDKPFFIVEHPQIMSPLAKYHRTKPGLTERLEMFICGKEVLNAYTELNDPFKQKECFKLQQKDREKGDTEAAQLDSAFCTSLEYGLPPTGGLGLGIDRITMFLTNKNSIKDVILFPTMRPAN
T2 sequence (Q15046 whole entry): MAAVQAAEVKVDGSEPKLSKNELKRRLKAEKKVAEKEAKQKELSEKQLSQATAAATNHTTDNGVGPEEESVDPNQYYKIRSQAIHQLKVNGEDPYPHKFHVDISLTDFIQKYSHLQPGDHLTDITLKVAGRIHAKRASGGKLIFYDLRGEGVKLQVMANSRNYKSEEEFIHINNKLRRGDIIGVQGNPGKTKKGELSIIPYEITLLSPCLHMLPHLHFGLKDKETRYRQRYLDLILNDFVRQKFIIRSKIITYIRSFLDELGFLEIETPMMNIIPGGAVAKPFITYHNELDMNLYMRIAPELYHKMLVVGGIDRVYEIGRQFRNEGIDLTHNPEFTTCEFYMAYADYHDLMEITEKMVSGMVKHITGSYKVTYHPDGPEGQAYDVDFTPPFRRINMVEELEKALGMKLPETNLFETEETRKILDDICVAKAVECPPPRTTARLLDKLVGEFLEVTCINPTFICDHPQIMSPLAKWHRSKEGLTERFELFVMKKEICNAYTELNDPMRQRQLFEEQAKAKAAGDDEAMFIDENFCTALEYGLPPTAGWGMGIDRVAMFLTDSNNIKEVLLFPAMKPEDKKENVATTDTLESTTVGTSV

In the case of `O=C(NCC1(O)CCC(F)(F)CC1)c1cc(=O)c2cc(F)ccc2o1` [Compound 5], the ΔTm at 40 µM at PfKRS1 [1] (setting [4]) was found to be 5.3 °C; on PfKRS1 [1] (read-out: ΔTm PfKRS, ATP), 0.9 °C; at PfKRS1 [1] (read-out: ΔTm PfKRS, Lysine), 7.5 °C; on PfKRS1 [1] (setting [5]) it was 1.3 °C. For the same molecule, the IC50 at HsKRS was 1800 nM; on PfKRS1 [3], 15 nM. In addition, the “cellular selectivity between P. falciparum parasites and human HepG2 cells” value in test [2] is given as 180 fold. The EC50 in test [2] turned out to be 270 nM. Besides, the “selectivity ratio for HsKRS/PfKRS1” value on PfKRS1 [3] (in Kinase-Glo) was 120 fold.

Consider `O=C(NCC1(O)CCCCC1)c1cc(=O)c2cc(F)ccc2o1` [Compound 4], for which the ΔTm at 40 µM at PfKRS1 [1] (setting [4]) turned out to be 5.1 °C; on PfKRS1 [1] (read-out: ΔTm PfKRS, ATP) it was 0.5 °C; on PfKRS1 [1] (read-out: ΔTm PfKRS, Lysine) it was 7.5 °C; at PfKRS1 [1] (setting [5]), 0.9 °C. Also, the IC50 was found to be 740 nM against HsKRS and 5 nM at PfKRS1 [3]. Besides, the EC50 in test [2] turned out to be 180 nM.

`O=C(NCC1CCCCC1)c1cc(=O)c2cc(F)ccc2o1` [Compound 3]: the ΔTm at 40 µM on PfKRS1 [1] (setting [4]) amounted to 2.4 °C; at PfKRS1 [1] (read-out: ΔTm PfKRS, ATP), 0.2 °C; on PfKRS1 [1] (read-out: ΔTm PfKRS, Lysine), 5.3 °C; at PfKRS1 [1] (setting [5]), 0.5 °C. The 50% inhibitory concentration (IC50) is over 2000 nM on HsKRS and 14 nM on PfKRS1 [3]. Besides, the half-maximal effective concentration (EC50) in test [2] is 290 nM.

Take `C[C@H]1CCC[C@H](C[C@H]2Cc3cc(O)cc(O)c3C(=O)O2)O1` [Compound 1, cladosporin, reference compound]: the ΔTm at 40 µM at PfKRS1 [1] (ATP + Lysine, read-out: ΔTm PfKRS) worked out at 7.2 °C; at PfKRS1 [1] (ATP, read-out: ΔTm PfKRS), 3.5 °C; at PfKRS1 [1] (Lysine, read-out: ΔTm PfKRS), 9.3 °C; on PfKRS1 [1] (no substrate, read-out: ΔTm PfKRS), 3.4 °C. In addition, the figures for the IC50 on HsKRS and on PfKRS1 [3] were over 2000 nM and 4 nM, respectively. In test [2], the half-maximal effective concentration (EC50) came out at 73 nM.

Take `O=C(NCC1CCCCC1)c1cc(=O)c2ccccc2o1` [Compound 2]: the ΔTm at 40 µM on PfKRS1 [1] (setting [4]) came out at 5.1 °C; on PfKRS1 [1] (read-out: ΔTm PfKRS, ATP), 0.9 °C; on PfKRS1 [1] (read-out: ΔTm PfKRS, Lysine) it was 7.4 °C; at PfKRS1 [1] (setting [5]) it was 1.2 °C. In addition, the IC50 against HsKRS is over 2000 nM; at PfKRS1 [3], 4 nM. Moreover, the EC50 in test [2] amounted to 190 nM.

As a reminder, the ΔTm is the shift of the melting midpoint relative to a reference. The IC50 is the concentration needed to halve the response being measured. As a reminder, the EC50 is the midpoint of the concentration-response curve.
